According to patent US9034943B2, “Salts of dehydroacetic acid as a pyrithione stabilizer in plastics” (LONZA LTD, priority 2009, dated 2015):
Where two headings read alike, the source gives them in different places.

Columns and labels:
[1] = test system: Aspergillus niger ATCC 9642; Aureobasidium pullulans ATCC 15233; Chaetomium globosum ATCC 6205; Penicillium funiculosum ATCC 11797; Trichoderma virens ATCC …; assay: Fungal resistance test, ASTM G21, on mineral salts agar; set-up: Zone of Inhibition: key to the marks not given beside the values; settings: PVC samples inoculated with mixed fungi, 28° C., 4 weeks
[2] = Procedure: (§1) Zinc dehydroacetate and zinc pyrithione were mixed with filled and clear commercial flexible polyvinyl chloride (PVC) compounds. The mixtures were extruded using an intermeshing modular co-rotating twin screw extruder to form flexible PVC compounds. […] Following extrusion, the flexible PVC compounds were cooled. Once cooling was complete, the flexible PVC compounds were pressed at 185° C. to form plastic sheets.
as §1, with “Zinc” for “Zinc dehydroacetate and zinc”, “pyrithione was” for “pyrithione were”
The weathering tester was set to a cycle of eight hours of ultraviolet A light (long wave) exposure and a four hour water condensation cycle in accordance with ASTM […]. After 1,000 hours of exposure, the plastic sheets were examined for color development.

Substance: zinc pyrithione
- Fungal Growth Reading [1]: 0
- Zone of Inhibition [1]: ++
- Color Rating of Clear FPVC ([2]; clear flexible PVC sheet, 0 hours QUV exposure): 0
- Color Rating of Clear FPVC ([2]; clear flexible PVC sheet, 1,000 hours QUV exposure (8 h UVA / 4 h condensation cycle)): 3
- Color Rating of Filled FPVC ([2]; filled flexible PVC sheet, 0 hours QUV exposure): 0
- Color Rating of Filled FPVC ([2]; filled flexible PVC sheet, 1,000 hours QUV exposure (8 h UVA / 4 h condensation cycle)): 4
